Assay [1] deals with Anti-cotinine antibody (SEQ ID NO: 11 / SEQ ID NO: 12, rabbit variable region with human IgG1 Fc domain). As to the kind of experiment: Binding of anti-cotinine antibody to ARM compounds by SPR, Biacore T200, 37° C. (Example 202). The following applies: pH 7.4, rabbit variable region/human IgG1 Fc antibody captured on protein A. The essentials: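 Antibody captured on protein A chip. Compounds injected (3-fold, 5-point, top 200 nM) at 100 μL/min with 200 s association and 2000 s dissociation, at 37° C. in HEPES pH 7.4 buffer with 1% DMSO. Double-referenced data fit to 1:1 kinetics. Kd = koff/kon, reported as pKd, averaged over runs.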

Assay [2] has as its target human alpha1 nicotinic acetylcholine (nACh) receptor (Homo sapiens, UniProt P02708+Q07001). The assay is described as follows: Nicotinic acetylcholine receptor antagonism assay, IONFlux automated patch clamp (Example 203). In kind it is cell-based. The following applies: for Emax at 100 µM: maximum percentage antagonism at maximum concentration tested 100 μM; for IC50: nAChR antagonism, ACh stimulated, patch clamp. In short, it runs like this: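 Human α1 nAChR-expressing cells were preincubated with compound (top 10 μM or 100 μM), then stimulated with 10 mM ACh; peak currents were recorded by IONFlux automated patch clamp. Percent inhibition versus ACh-alone control was vehicle- and rundown-corrected, then fitted to give IC50, with maximal antagonism at the top concentration; recordings with control current <500 pA were excluded.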
On the technique in general: The patch-clamp technique gives a direct electrical read-out from membranes.

Assay [3] has as its target T1, CHOK1 cells engineered to overexpress human CCR2 (Homo sapiens, UniProt P41597).
T1 construct: expressed in transfected cells; host or cells: CHOK1 cells
As to the kind of experiment: Antibody dependent cellular cytotoxicity (ADCC) reporter assay (Example 199). The following applies: with anti-cotinine antibody SEQ ID NO: 11/12, CHOK1-human CCR2 target cells, Jurkat FcγRIIIa NFAT-luciferase reporter cells, 12-18 hours; for EC50: read-out: ADCC Reporter Assay pEC50 (converted). Type of assay: cell-based. In short, it runs like this: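 CHOK1-hCCR2 target cells are co-incubated for 12–18 h with Jurkat FcγRIIIa/NFAT-luciferase reporter cells, ARM compound (1 pM–10 μM) and anti-cotinine antibody with a DE-mutant human IgG1 Fc (0.01–200 μg/mL). Luminescence is expressed as signal:background against no-compound wells; EC50 comes from nonlinear fit and is reported as pEC50, averaged across runs.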
(In general: Reporter assays use an easily measured gene product as a stand-in for the process of interest.)

Here are results for eleven compounds from patent US20250136722A1, “CYTOTOXICITY TARGETING CHIMERAS” (GLAXOSMITHKLINE INTELLECTUAL PROPERTY DEVELOPMENT LIMITED, priority 2021, published 2025).

Molecules are shown by their SMILES. Where “and” joins values, the source holds several entries; their conditions need not be identical. Equal entries are not always repeated.

For orientation: IC50 means the concentration needed to halve the response being measured. Read a low IC50 as higher potency.

Chain of human alpha1 nicotinic acetylcholine (nACh) receptor (P02708 21-457): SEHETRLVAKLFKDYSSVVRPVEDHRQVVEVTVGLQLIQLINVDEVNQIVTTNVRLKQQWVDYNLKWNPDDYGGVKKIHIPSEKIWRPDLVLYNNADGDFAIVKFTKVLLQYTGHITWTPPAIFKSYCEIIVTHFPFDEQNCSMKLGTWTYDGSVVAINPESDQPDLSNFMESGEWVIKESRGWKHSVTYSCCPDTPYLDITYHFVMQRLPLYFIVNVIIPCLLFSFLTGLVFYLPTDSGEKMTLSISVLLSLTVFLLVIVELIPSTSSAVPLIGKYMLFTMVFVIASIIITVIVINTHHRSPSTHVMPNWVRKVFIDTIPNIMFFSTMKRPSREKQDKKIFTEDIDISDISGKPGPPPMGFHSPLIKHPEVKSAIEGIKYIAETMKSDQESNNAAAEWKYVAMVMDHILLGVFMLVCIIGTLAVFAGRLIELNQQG
Chain of human alpha1 nicotinic acetylcholine (nACh) receptor (P11230 24-501 partner): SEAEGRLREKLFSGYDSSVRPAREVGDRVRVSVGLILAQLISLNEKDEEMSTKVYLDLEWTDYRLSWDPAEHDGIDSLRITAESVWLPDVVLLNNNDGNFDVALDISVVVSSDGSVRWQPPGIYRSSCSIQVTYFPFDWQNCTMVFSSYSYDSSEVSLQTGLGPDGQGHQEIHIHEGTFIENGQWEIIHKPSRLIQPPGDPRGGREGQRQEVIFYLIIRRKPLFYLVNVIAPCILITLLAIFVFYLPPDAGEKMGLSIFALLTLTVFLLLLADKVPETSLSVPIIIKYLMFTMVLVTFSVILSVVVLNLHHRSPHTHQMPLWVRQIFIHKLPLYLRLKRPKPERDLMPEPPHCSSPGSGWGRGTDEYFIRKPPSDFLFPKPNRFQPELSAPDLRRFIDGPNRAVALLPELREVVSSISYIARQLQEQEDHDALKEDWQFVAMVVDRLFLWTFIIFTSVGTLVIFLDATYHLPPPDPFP
Chain of human alpha1 nicotinic acetylcholine (nACh) receptor (Q07001 22-517): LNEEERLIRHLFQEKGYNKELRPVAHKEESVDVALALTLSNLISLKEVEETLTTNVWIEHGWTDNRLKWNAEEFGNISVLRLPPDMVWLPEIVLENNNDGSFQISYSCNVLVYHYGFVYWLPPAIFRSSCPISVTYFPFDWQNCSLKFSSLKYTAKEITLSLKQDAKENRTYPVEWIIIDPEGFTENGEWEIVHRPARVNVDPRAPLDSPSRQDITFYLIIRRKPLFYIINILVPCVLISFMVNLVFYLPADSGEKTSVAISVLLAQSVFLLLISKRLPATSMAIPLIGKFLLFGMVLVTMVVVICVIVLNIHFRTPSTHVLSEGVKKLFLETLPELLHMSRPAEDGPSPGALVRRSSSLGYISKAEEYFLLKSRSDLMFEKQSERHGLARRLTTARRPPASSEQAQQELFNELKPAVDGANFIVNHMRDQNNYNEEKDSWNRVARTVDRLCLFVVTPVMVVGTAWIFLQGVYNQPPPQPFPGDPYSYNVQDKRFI

Regarding `CC(C)N(C)[C@@H]1CC[C@H](N2CC[C@H](Nc3ncnc4ccc(C(F)(F)F)cc34)C2=O)[C@H](NC(=O)[C@H]2C[C@@H](NC(=O)CCOCCOCCOCCNC(=O)[C@H]3CC(=O)N(C)[C@@H]3c3cccnc3)C2)C1` [Example 24], the “pKd of Antibody for ARM Compound of Formula (I)” value (“pKd of Antibody” for short) in assay [1] stood at 9.4425. Besides, in assay [2] (read-out: Maximum Response (%)), the Emax at 100 µM came out at 59.5%. The compound also yielded an IC50 in assay [2] of 85300 nM. The EC50 in assay [3] is 1.46 nM and 0.358 nM.

Take `CC(C)N(C)[C@@H]1CC[C@H](N2CC[C@H](Nc3ncnc4ccc(C(F)(F)F)cc34)C2=O)[C@H](NC(=O)[C@H]2CC[C@@H](NC(=O)CCOCCOCCOCCNC(=O)[C@H]3CC(=O)N(C)[C@@H]3c3cccnc3)CC2)C1` [Example 28]: the “pKd of Antibody” value in assay [1] is recorded as 9.273. For the same compound, the Emax at 100 µM in assay [2] (read-out: Maximum Response (%)) turned out to be 69.9%. The same compound showed an IC50 in assay [2] of 40900 nM. The EC50 in assay [3] is 0.251 nM.

Turning to `CC(C)N(C)[C@@H]1CC[C@H](N2CC[C@H](Nc3ncnc4ccc(C(F)(F)F)cc34)C2=O)[C@H](NC(=O)[C@H]2CC[C@H](NC(=O)CCOCCOCCOCCNC(=O)[C@H]3CC(=O)N(C)[C@@H]3c3cccnc3)CC2)C1` [Example 30], the “pKd of Antibody” value in assay [1] stood at 9.3155. For the same compound, the Emax at 10 µM in assay [2] (maximum percentage antagonism at maximum concentration tested 10 μM, read-out: Maximum Response (%)) came out at 5.4%. Besides, in assay [2], the IC50 is greater than 10000 nM. Also, the EC50 in assay [3] was 7.53 nM.

Consider `CCN1C(=O)C[C@H](C(=O)NCCOCCOCCOCCC(=O)N[C@H]2CC[C@@H](C(=O)N[C@@H]3C[C@H](N(C)C(C)C)CC[C@@H]3N3CC[C@H](Nc4ncnc5ccc(C(F)(F)F)cc45)C3=O)CC2)[C@H]1c1cccnc1` [Example 34], for which, in assay [1], the “pKd of Antibody” value was found to be 9.933. The Emax at 100 µM in assay [2] (read-out: Maximum Response (%)) is 79.2%. The same compound returned an IC50 in assay [2] of 28500 nM. In assay [3], the EC50 was 1 nM.

With `CCN1C(=O)C[C@H](C(=O)NCCOCCOCCOCCC(=O)N[C@H]2CC[C@@H](C(=O)N[C@@H]3C[C@H](NC(C)(C)C)CC[C@@H]3N3CC[C@H](Nc4ncnc5ccc(C(F)(F)F)cc45)C3=O)CC2)[C@H]1c1cccnc1` [Example 35], in assay [1], the “pKd of Antibody” value is on record as 9.785. Also, the Emax at 100 µM in assay [2] (read-out: Maximum Response (%)) is 52.3%. This compound returned an IC50 in assay [2] of 89200 nM. Also, the EC50 in assay [3] is 2.51 nM.

For `CC(C)N(C)[C@@H]1CC[C@H](N2CC[C@H](Nc3ncnc4ccc(C(F)(F)F)cc34)C2=O)[C@H](NC(=O)C2CCC(NC(=O)CCOCCNC(=O)CCOCCNC(=O)[C@H]3CC(=O)N(C)[C@@H]3c3cccnc3)CC2)C1` (some centres unmarked) [Example 48], the “pKd of Antibody” value in assay [1] is on record as 8.975. The Emax at 100 µM in assay [2] (read-out: Maximum Response (%)) turned out to be 77%. This compound also displayed an IC50 in assay [2] of 31800 nM. Also, in assay [3], the “ADCC Reporter Assay pEC50” value is 9.159 and 9.168.

For `CC(C)N(C)[C@@H]1CC[C@H](N2CC[C@H](Nc3ncnc4ccc(C(F)(F)F)cc34)C2=O)[C@H](NC(=O)[C@H]2C[C@@H](NC(=O)CCOCCOCCNC(=O)CCNC(=O)[C@H]3CC(=O)N(C)[C@@H]3c3cccnc3)C2)C1` [Example 49, (2S,3S)-N-(3-((2-(2-(3-(((1S,3s)-3-(((1R,2S,5R)-5-(Isopropyl(methyl)amino)-2-((S)-2-oxo-3-((6-(trifluoromethyl)quinazolin-4-yl)amino)pyrrolidin-1-yl)cyclohexyl)carbamoyl)cyclobutyl)amino)-3-oxopropoxy)ethoxy)ethyl)amino)-3-oxopropyl)-1-methyl-5-oxo-2-(pyridin-3-yl)pyrrolidine-3-carboxamide], in assay [1], the “pKd of Antibody” value came to 9.191. Further, in assay [2] (read-out: Maximum Response (%)), the Emax at 100 µM amounted to 56.7%. 80300 nM corresponded to half-maximal inhibition in assay [2] (IC50). The EC50 in assay [3] was 0.845 nM and 0.303 nM.

As to `CC(C)N(C)[C@@H]1CC[C@H](N2CC[C@H](Nc3ncnc4ccc(C(F)(F)F)cc34)C2=O)[C@H](NC(=O)[C@H]2CC[C@@H](NC(=O)CCCO[C@H]3CC[C@H](NC(=O)CCNC(=O)[C@@H]4CC(=O)N(C)[C@H]4c4cccnc4)CC3)CC2)C1` [Example 52, (2S,3S)-N-(3-(((1R,4S)-4-(4-(((1S,4S)-4-(((1R,2S,5R)-5-(Isopropyl(methyl)amino)-2-((S)-2-oxo-3-((6-(trifluoromethyl)quinazolin-4-yl)amino)pyrrolidin-1-yl)cyclohexyl)carbamoyl)cyclohexyl)amino)-4-oxobutoxy)cyclohexyl)amino)-3-oxopropyl)-1-methyl-5-oxo-2-(pyridin-3-yl)pyrrolidine-3-carboxamide], the “pKd of Antibody” value in assay [1] turned out to be 9.2545. Moreover, the Emax at 33.33 µM in assay [2] (maximum percentage antagonism at maximum concentration tested 33.33 μM, read-out: Maximum Response (%)) came out at 8.3%. The same compound yielded an IC50 in assay [2] greater than 33300 nM. Further, the EC50 in assay [3] is 0.222 nM and 0.294 nM.

In the case of `CC(C)N(C)[C@@H]1CC[C@H](N2CC[C@H](Nc3ncnc4ccc(C(F)(F)F)cc34)C2=O)[C@H](NC(=O)[C@H]2CC[C@H](NC(=O)CCOC[C@H]3CC[C@H](COCCNC(=O)[C@H]4CC(=O)N(C)[C@@H]4c4cccnc4)CC3)CC2)C1` [Example 53, (2S,3S)-N-(2-(((1R,4S)-4-((3-(((1R,4R)-4-(((1R,2S,5R)-5-(Isopropyl(methyl)amino)-2-((S)-2-oxo-3-((6-(trifluoromethyl)quinazolin-4-yl)amino)pyrrolidin-1-yl)cyclohexyl)carbamoyl)cyclohexyl)amino)-3-oxopropoxy)methyl)cyclohexyl)methoxy)ethyl)-1-methyl-5-oxo-2-(pyridin-3-yl)pyrrolidine-3-carboxamide], in assay [1], the “pKd of Antibody” value amounted to 9.531. Also, in assay [2] (maximum percentage antagonism at maximum concentration tested 11.11 μM, read-out: Maximum Response (%)), the Emax at 11.11 µM was 10%. The compound further had an IC50 in assay [2] greater than 11100 nM. In addition, in assay [3], the EC50 is 7.6 nM.

`CC(C)N(C)[C@@H]1CC[C@H](N2CC[C@H](Nc3ncnc4ccc(C(F)(F)F)cc34)C2=O)[C@H](NC(=O)[C@H]2CC[C@H](NC(=O)CCCOC[C@H]3CC[C@@H](COCCNC(=O)[C@H]4CC(=O)N(C)[C@@H]4c4cccnc4)CC3)CC2)C1` [Example 57, (2S,3S)-N-(2-(((1S,4R)-4-((4-(((1R,4R)-4-(((1R,2S,5R)-5-(Isopropyl(methyl)amino)-2-((S)-2-oxo-3-((6-(trifluoromethyl)quinazolin-4-yl)amino)pyrrolidin-1-yl)cyclohexyl)carbamoyl)cyclohexyl)amino)-4-oxobutoxy)methyl)cyclohexyl)methoxy)ethyl)-1-methyl-5-oxo-2-(pyridin-3-yl)pyrrolidine-3-carboxamide]: the “pKd of Antibody” value in assay [1] was 9.685. The Emax at 30 µM in assay [2] (maximum percentage antagonism at maximum concentration tested 30 μM, read-out: Maximum Response (%)) was determined as 47.6%. Also, the IC50 in assay [2] was greater than 30000 nM. Further, in assay [3], the EC50 was 1.61 nM and 1.48 nM and 5.07 nM.

As to `CC(C)N(C)[C@@H]1CC[C@H](N2CC[C@H](Nc3ncnc4ccc(C(F)(F)F)cc34)C2=O)[C@H](NC(=O)CCNC(=O)CCCOC[C@H]2CC[C@@H](COCCNC(=O)[C@H]3CC(=O)N(C)[C@@H]3c3cccnc3)CC2)C1` [Example 62], the “pKd of Antibody” value in assay [1] was determined as 9.6305. Also, the Emax at 100 µM in assay [2] (read-out: Maximum Response (%)) worked out at 67.9%. The compound also displayed an IC50 in assay [2] of 29000 nM. The EC50 in assay [3] was 0.867 nM.
